Results taken from patent US9023835B2, “Agent for ameliorating blood-brain barrier disorders” (Nagasaki University, priority 2009, dated 2015).

Legend:
[1] = system: cerebral ischemia model mice (left middle cerebral artery infarction, reperfusion); experiment: Tomato lectin staining of cerebral microvessels (blood-brain barrier disorder) in transient cerebral ischemia model mice; type: in vivo, C57BL/J6 mice; conditions: for tomato lectin signal (microvessel length) on the ipsilateral-to-ischemia side, cerebrocortical sensation region: 1 h MCAO, i.v. 1 h after reperfusion, ProTα 100 μg/kg, ProTα30 1 mg/kg, ProTα9 0.3 mg/kg, C-term 0.3 mg/kg; for suppression of cerebrovascular collapse (tomato lectin staining, cortex and striatum): Example 4, same experiment as Example 1, ProTα vs ProTα30
Method: Five minutes later, the whole body was perfused and fixed with para-formaldehyde (PFA); the brain was extracted and further treated with 4% PFA at room temperature for 3 hours. Thereafter, the brain was placed in 25% sucrose solution and allowed to stand at 4° C. overnight. The brain was freeze-embedded in the OCT compound, and a 50 μm-thick section was prepared on a plane including the cerebral cortex sensory area S1 (CS1) or S2 (CS2), bonded onto a silane-coated glass slide, and dried on a heater overnight. Thereafter, using Alexa Fluor488-labeled streptavidin (diluted 300 fold with 2% BSA/PBST), fluorescent staining of tomato lectin was performed, after which the specimen was fixed with the fluorescent antifading agent Fluoromount (Japan Tanner Corporation), and allowed to stand in the dark overnight, then examined using the LSM5 PASCAL confocal laser microscope (Carl Zeiss). Fluorescent signals were cumulatively analyzed for total fluorescence in an approximately 30 μm range by the deconvolution method.
After 0.5 hours of middle cerebral artery obstruction (MCAO), reperfusion was performed; 1 hour later, tomato lectin staining in the CS2 region was observed as a signal of approximately 30 μm length on the contralateral-to-ischemia side (the scale bar is 100 μm, ×20 objective lens).
The same experiment as that shown in Example 1 was performed using ProTα and the active form ProTα30, and the effects thereof were comparatively analyzed.
Furthermore, fluorescent staining of tomato lectin was performed in the same manner as in Example 1, and microvessels were analyzed.
When reperfusion was performed after 1 hour of middle cerebral artery occlusion (MCAO), tomato lectin staining of the cerebrocortical sensation region was observed as a signal roughly 30 μm long on the contralateral-to-ischemia side (Contra).

[2] = system: photoinduced middle cerebral artery thrombosis (PIT) model mice; experiment: Photoinduced middle cerebral artery thrombosis (PIT) model mice: infarction region volume, motor function; type: in vivo, C57BL/J6 mice; conditions: for infarction (infarction region volume): after 24 hours of ischemia, solvent 48%; for motor function evaluation (inability to keep the posture and leaning or loss of spontaneous movement): 24 hours after ischemia, ProTα 100 μg/kg, ProTα30 1 mg/kg, ProTα9 0.1-1 mg/kg
Method: The left middle cerebral artery of a C57BL/J6 mouse was exposed under the dura, and the photosensitizing dye rose bengal was administered at 30 mg/kg into a caudal vein, after which green light with a given wavelength was irradiated to the middle cerebral artery for 10 minutes to produce a thrombus, and induce infarction with this thrombus. One hour after light irradiation, vehicle, ProTα (100 μg/kg), ProTα30 (1 mg/kg), or ProTα9 (0.1 mg/kg, 0.3 mg/kg and 1 mg/kg) was administered to a caudal vein. Next, after 24 hours of ischemia, infarction region volume was measured to evaluate the motor function in the same manner as the above.

[3] = system: transient cerebral ischemia model mice; experiment: Transient cerebral ischemia model mice: infarction region volume (TTC), clinical score, survival rate; conditions: for infarction region suppressing effect: 0.3 mg/kg i.v.; for infarction (infarction region volume, TTC): 24 h later, solvent alone 48%; for infarction (infarction region volume): solvent 48%
Method: Cerebral ischemia model mice generated by infarcting the left middle cerebral arteries of C57BL/J6 mice were maintained for 1 hour, and then reperfusion was performed. One hour after the reperfusion, a vehicle or ProTα30 (10 μg) was intracerebroventricularly administered (i.c.v.); the mice were examined over time every 24 hours to evaluate the motor function and survival rate. Also, clinical scores indicating movement disorders subsequent to left middle cerebral artery infarction were evaluated according to the rating system of 1: unable to completely extend the right forelimb, 2: rightward turning behavior, 3: unable to keep the posture and leans in the rightward direction, 4: loss of spontaneous movement, 5: death.
Meanwhile, 1 hour after ischemia and reperfusion, ProTα30 (0 μg (Veh), 0.1 μg or 10 μg) was intracerebroventricularly administered; the whole brain, extracted 24 hours thereafter was treated with 2% TTC (2,3,5-Triphenyltetrazolium chloride) staining solution in solution in PBS, and washed with PBS, after which five coronary sections of 1 mm thickness were taken with coverage of 2 mm anteriorly and 3 mm posteriorly from the bregma. […] The cerebral infarction region was evaluated according to the equation below. […] All volume on the ipsilateral side refers to the entire infarcted and non-infarcted regions on the ischemized side as divided on the median line, whereas all volume on the contralateral side refers to the entire region on the non-ischemized side.

[4] = system: permanent cerebral ischemia model mice; experiment: Permanent cerebral ischemia model mice: infarction region volume, clinical score, survival rate; conditions: no reperfusion, 24 h later, solvent 60%
Method: To permanent cerebral ischemia model mice generated by infarcting the middle cerebral arteries of C57BL/J6 mice, ProTα30 was intravenously administered (i.v.), without reperfusion, 2 hours and 4 hours after the start of ischemia. Next, 24 hours later, in the same manner as the above, infarction region volume was measured.
To permanent cerebral ischemia model mice generated by infarcting the middle cerebral arteries of C57BL/J6 mice, ProTα was administered into a caudal vein at 100 μg/kg, without reperfusion, 2, 7, or 12 hours after the start of ischemia. Next, in the same manner as the above, infarction region volume was measured. […] In the same mice, motor function was evaluated. Clinical scores indicating motor function disorders were evaluated in the same manner as Example 5.
Meanwhile, a vehicle or ProTα (100 μg) was administered into a caudal vein (i.v.) 2 and 4 hours after the start of ischemia, and the mice were examined over time every 24 hours to evaluate the motor function and survival rate.

[5] = system: permanent cerebral ischemia model rats; experiment: Permanent cerebral ischemia model rats: infarction region volume, clinical score, survival rate
Method: To permanent cerebral ischemia model rats generated by infarcting the middle cerebral arteries of Sprague-Dawley rats, ProTα was administered into a caudal vein (i.v.), without reperfusion, 4 hours after the start of ischemia. Next, 24 hours later, infarction region volume was measured in the same manner as the above.
Furthermore, rats were examined over time every 24 hours to evaluate the motor function and survival rate.

[6] = 1 mg/kg caudal vein 1 hour after light irradiation

| Substance | tomato lectin signal (microvessel length) on the ipsilateral-to-ischemia side, cerebrocortical sensation region [1] | infarction injury region, dose dependence ([2]; 0.1 mg/kg, 0.3 mg/kg and 1 mg/kg caudal vein) | infarction (infarction region volume) [2, 6] [%] | motor function evaluation (inability to keep the posture and leaning or loss of spontaneous movement) [2] | infarction region suppressing effect [3] | infarction (infarction region volume) ([4]; 1 mg/kg i.v. once, 2 hours after infarction) [%] | infarction (infarction region volume) ([4]; i.v. twice, at 2 hours and 4 hours) [%] | infarction (infarction region volume, TTC) ([3]; 0.1 μg i.c.v. 1 h after reperfusion) [%] | infarction (infarction region volume, TTC) ([3]; 10 μg i.c.v. 1 h after reperfusion) [%] | motor function evaluation (clinical score) ([3]; 10 μg i.c.v., loss of spontaneous movement 3 days after ischemia and reperfusion) | clinical scores (hemiparalysis of degree 3) ([3]; 0.275 mg/kg i.v.) | infarction (infarction region volume) ([3]; 0.275 mg/kg i.v. once 1 hour after reperfusion) [%] | clinical scores (hemiparalysis of degree 3) ([3]; 1 mg/kg i.v.) | infarction (infarction region volume) ([3]; 1 mg/kg i.v. once 1 hour after reperfusion) [%] | survival rate ([3]; mouse, in vivo) | suppression of cerebrovascular collapse (tomato lectin staining, cortex and striatum) [1] | infarction (infarction region volume) ([2]; 100 μg/kg caudal vein 1 hour after infarction) [%] | survival rate ([5]; 100 μg caudal vein, about 2 weeks later, non-dosing group 50% one day after ischemia) | infarction (infarction region volume) ([5]; 100 μg/kg i.v. 4 hours after infarction, 24 h later, solvent 40%) [%] | cerebrovascular destruction in the CS2 and striata on the ischemized side (tomato lectin staining) ([1]; 0.1 mg/kg i.v. 1 hour after reperfusion, examined 24 hours after reperfusion) |
| --- | --- | --- | --- | --- | --- | --- | --- | --- | --- | --- | --- | --- | --- | --- | --- | --- | --- | --- | --- | --- |
| C-term: C-end of ProTα, amino acid sequence TKKQKKTDEDD (SEQ ID NO: 50) [reference compound] | observed only as a fragment |  |  |  |  |  |  |  |  |  |  |  |  |  |  |  |  |  |  |  |
| ProTα9: polypeptide consisting of the 52nd amino acid to the 60th amino acid of rat prothymosin α, EVDEEEEEG (SEQ ID NO:6) (consensus amino acid sequence) | longer signals | decreased in a dose-dependent fashion | 30 | significantly ameliorated | cerebral infarction region suppressing effect |  |  |  |  |  |  |  |  |  |  |  |  |  |  |  |
| ProTα30: polypeptide consisting of the 49th amino acid to the 78th amino acid of rat prothymosin α (SEQ ID NO:4) (ADNEVDEEEEEGGEEEEEEEEGDGEEEDGD; consensus amino acid sequence) | longer signals |  | 30 | significantly ameliorated | cerebral infarction region suppressing effect | 34 | 27 | 44 | 38 | significantly ameliorated | no effect was observed | 39 | ameliorated significantly | 13 | about 80% | suppressing cerebrovascular collapse |  |  |  |  |
| prothymosin α (SDAAVDTSSEITTKDLKEKKEVVEEAEN; UniProt P26350 2-29, looked up) [ProTα, known protein] | longer signals |  |  | significantly ameliorated |  |  |  |  |  |  |  |  |  |  |  | suppressing cerebrovascular collapse | 23 | about 75% | 25 | disappeared nearly completely |
